Results taken from paper PMC12781162, “Human Protein Z as the Second Known Heme‐Binding Protein from the Endogenous Blood Coagulation Inhibitor System” (Chembiochem, 2025).
“And” between values parts separate entries of the source, which are not always exact repeats. Equal entries are not always repeated. “Also recorded” adds a separate entry of the source. Where two headings read alike, the source gives them in different places. No end group written: not given here. Cys(S-Me) = S-methylated cysteine

What was measured:
Human protein Z (PZ) = target: T1, Human protein Z (PZ) (Homo sapiens, UniProt P22891); assay: SPR binding of porphyrins to immobilized PZ (single-cycle kinetics); details: tested concentration range 187.5 nM – 12 µM
T1 construct: purchased CellSystems GmbH HCPZ-0220
Method: (§1) SPR experiments were conducted on a Biacore 8K instrument (Cytiva) to investigate the interaction of PZ with heme, as established before.^[ [19] ^, [35] ^, [37] ^, [43] ^] In brief, PZ (10 µg mL^−1) was dissolved in 10 mM sodium acetate buffer (pH 3.5) and immobilized onto a CM5 sensor chip via standard amine coupling, resulting in a final immobilization level of 767 RU. Heme (stock solution in 30 mM NaOH) was further diluted in running buffer (10 mM HEPES, 150 mM NaCl, and 0.05% Tween 20, pH 7.4). The same was performed with zinc (II) protoporphyrin IX and protoporphyrin IX (Frontier Scientific). Binding kinetics were assessed by injecting seven increasing concentrations of heme (187.5–12,000 nM) in a single‐cycle kinetics format at 25 °C and a flow rate of 30 µL min^−1. Data analysis was performed by global fitting using Biacore Insight Evaluation Software, version 3.0.12.15655 (Cytiva).

thrombin [1] = target: T2, thrombin (Homo sapiens, UniProt P00734); assay: SPR binding of porphyrins to immobilized thrombin; set-up: human α‐thrombin (HCT‐0020); purchased CellSystems GmbH HCT-0020
Method: as §1
Figure S7. Heme binds to thrombin. For SPR analysis, thrombin (10 µg/ml) was dissolved in 10 mM sodium acetate buffer (pH 6.0) and immobilized onto a CM5 sensor chip via standard amine coupling, resulting in a final immobilization level of 1826.1 RU. Binding kinetics were assessed by injecting six increasing concentrations of heme (187.5 – 6,000 nM) in a single-cycle kinetics format at 25°C and a flow rate of […]
transient nature of heme binding to thrombin. […]

[2] = UV/vis spectroscopic interaction studies of PZ-derived peptides with heme; assay type: binding; details: peptide 10 µM; for heme binding on peptide level: heme 0.4-40 µM; for Kd: read-out: K D (heme-binding affinity of peptide)
Method: Heme binding to PZ‐derived peptides 1 –5 was analyzed by UV/vis spectroscopy, as previously reported for other protein‐derived peptides as well.^[ [18] ^, [19] ^, [35] ^, [43] ^, [44] ^] In brief, each peptide (10 µM) was incubated for 30 min with heme in 100 mM HEPES buffer (pH 7.0) for 30 min. Absorbance spectra were recorded in the range of 300–600 nm on a Infinite 200 Pro spectrophotometer. Difference spectra were generated by subtraction of the single absorbance data of heme and the peptide, respectively, from the data of the heme–peptide complex. Difference spectra were plotted with GraphPad Prism, version 10.5.0. K D values were calculated using the equation from Pîrnău and Bogdan (2008).^[ [45] ^]

thrombin [3] = target: thrombin; set-up: method as in PMID 2040612; details: read-out: K D (PZ direct binding to thrombin); cited from earlier work
[4] = Substrate control of the chromogenic assay without thrombin; assay type: biochemical; details: no thrombin; heme 1 – 1000 nM, PZ 10 nM; thrombin = 100 %
Method: Herein, an earlier established chromogenic thrombin amidolytic activity assay system was thus used, inspired by Hogg and Stenflo.^[ [19] ^, [28] ^] PZ (final concentration: 10 nM) was first incubated for 30 min with different heme concentrations (final concentrations: 1–1000 nM). Afterward, the heme–PZ mixture was incubated with thrombin for 10 min and the PZ–thrombin mixture (50 µL; final thrombin concentration: 15 nM) was transferred onto a 96‐well plate (Greiner Bio‐One GmbH). Finally, 5 µL of the substrate solution (H‐D‐Phe‐Pip‐Arg‐pNA x 2 HCl (S‐2238); final concentration: 273 µM) was added. Immediately, kinetic measurements at 405 nm were started, using an Infinite 200 Pro spectrophotometer. Heme only, thrombin only, and PZ‐heme only served as controls. For evaluation, the thrombin activity was determined as the change of absorbance per second and always normalized against the basal thrombin activity without PZ. Data were analyzed as the mean of triplicate and the IC50 was calculated by nonlinear regression (GraphPad Prism, version 10.5.0). […]
thrombinheme (0 nM)heme (1 nM) thrombin heme (3.16 nM)heme (10 nM)heme (31.6 nM)heme (100 nM)heme (316 nM)heme (1000 nM)PZ+heme (0 nM)PZ+heme (1 nM) PZ+heme (3.16 nM)PZ+heme (10 nM)PZ+heme (31.6 nM)PZ+heme (100 nM)PZ+heme (316 nM)PZ+heme (1000 nM)
Figure S5. […]

[5] = set-up: method as in PMID 27584039; details: read-out: K D (PZ interaction with phospholipid surfaces via Gla domain); cited from earlier work
PZ = target: T3, PZ (Homo sapiens, UniProt P22891); assay: aPTT-based one-stage clotting assay: anticoagulant function of PZ against FXa in the presence of heme; assay type: biochemical
T3 construct: purchased CellSystems GmbH HCPZ-0220 (PZ); HCXA-0060 (FXa)
Method: To estimate an effect on molecular level, the structure of the PZ–ZPI complex (PDB: 3H5C^[ [42] ^]) was first inspected with heme attached to PZ. The anticoagulant function of PZ was then analyzed in the presence of heme by a one‐stage clotting assay, which was inspired by previous work from us and others.^[ [19] ^, [27] ^] The aPTT‐based assay was performed with the ball coagulometer KC 4 A (Amelung, Lemgo, Germany). PZ (320 nM) was preincubated with different concentrations of heme (0–100 µM) for 30 min in 1x PBS, pH 7.4. Afterward, 50 µL of the PZ–heme mixture was incubated with 50 µL of Actin FSL, 50 µl CaCl2 (30 mM), and 50 µL FXa (0.5 nM) at 37 °C for 3 min. Finally, 50 µL citrated pooled plasma was added and the clotting time was automatically recorded. The following mixtures served as controls: 1) 50 µL PBS‐heme + 50 µL Actin FSL + 50 µL CaCl2 + 50 µL FXa + 50 µL citrated plasma, 2) 50 µL PBS‐heme + 50 µL Actin FSL + 50 µL CaCl2 + 50 µL PBS + 50 µL citrated plasma, 3) 50 µL PZ–heme + 50 µL Actin FSL + 50 µL CaCl2 + 50 µL PBS + 50 µL citrated plasma, 4) 50 µL PZ‐PBS + 50 µL Actin FSL + 50 µL CaCl2 + 50 µL FXa + 50 µL citrated plasma, 5) 50 µL PZ‐PBS + 50 µL Actin FSL + 50 µL CaCl2 + 50 µL PBS + 50 µL citrated plasma, 6) 50 µL PBS + 50 µL Actin FSL + 50 µL CaCl2 + 50 µL FXa + 50 µL citrated plasma, and 7) 50 µL PBS + 50 µL Actin FSL + 50 µL CaCl2 + 50 µL PBS + 50 µL citrated plasma. Final concentrations in the approach were 6 mM CaCl2, 0–20 µM heme, 32 nM and PZ, 0.1 nM FXa. Data were normalized against the clotting time of citrated plasma only (control (7)) and evaluated as the mean of triplicates. The IC50 was determined by fitting the curves with nonlinear regression (GraphPad Prism, version 10.5.0).

thrombin [6] = tested on: thrombin; set-up: method as in PMID 2040612; details: PZ:thrombin ratios of ≈1:9 to ≈5:1; cited from earlier work
human α-thrombin = tested on: T4, human α-thrombin; assay: Chromogenic thrombin amidolytic activity assay (S-2238); assay type: biochemical
T4 construct: human α‐thrombin (HCT‐0020); purchased CellSystems GmbH HCT-0020
Method: Herein, an earlier established chromogenic thrombin amidolytic activity assay system was thus used, inspired by Hogg and Stenflo.^[ [19] ^, [28] ^] PZ (final concentration: 10 nM) was first incubated for 30 min with different heme concentrations (final concentrations: 1–1000 nM). Afterward, the heme–PZ mixture was incubated with thrombin for 10 min and the PZ–thrombin mixture (50 µL; final thrombin concentration: 15 nM) was transferred onto a 96‐well plate (Greiner Bio‐One GmbH). Finally, 5 µL of the substrate solution (H‐D‐Phe‐Pip‐Arg‐pNA x 2 HCl (S‐2238); final concentration: 273 µM) was added. Immediately, kinetic measurements at 405 nm were started, using an Infinite 200 Pro spectrophotometer. Heme only, thrombin only, and PZ‐heme only served as controls. For evaluation, the thrombin activity was determined as the change of absorbance per second and always normalized against the basal thrombin activity without PZ. Data were analyzed as the mean of triplicate and the IC50 was calculated by nonlinear regression (GraphPad Prism, version 10.5.0).

[7] = target: PZ-dependent protease inhibitor (ZPI); set-up: method as in PMID 22786881, PMID 24960590; details: read-out: K D (PZ interaction with ZPI via peptidase-like domain); cited from earlier work
thrombin [8] = target: T2, thrombin; details: cited from earlier work
ZPI (Homo sapiens) = ZPI (Homo sapiens) (UniProt Q9UK55); details: cited from earlier work
[9] = 100 mM HEPES pH 7.0, 30 min, stoichiometry 1:1

Sequence of ZPI (Homo sapiens) (Q9UK55 22-444): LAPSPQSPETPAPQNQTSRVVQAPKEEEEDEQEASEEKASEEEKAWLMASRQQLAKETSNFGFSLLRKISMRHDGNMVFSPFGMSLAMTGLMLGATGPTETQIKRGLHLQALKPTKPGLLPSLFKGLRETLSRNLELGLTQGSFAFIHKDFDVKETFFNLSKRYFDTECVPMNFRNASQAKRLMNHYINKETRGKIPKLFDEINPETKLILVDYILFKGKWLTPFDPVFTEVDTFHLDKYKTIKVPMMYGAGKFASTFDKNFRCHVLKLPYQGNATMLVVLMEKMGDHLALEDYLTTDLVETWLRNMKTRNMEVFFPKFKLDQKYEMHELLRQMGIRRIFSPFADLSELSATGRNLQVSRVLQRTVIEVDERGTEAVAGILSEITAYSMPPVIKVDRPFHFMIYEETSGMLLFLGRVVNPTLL

C=CC1=C(C)c2cc3[nH]c(cc4nc(cc5[nH]c(cc1n2)c(C)c5CCC(=O)O)C(CCC(=O)O)=C4C)c(C)c3C=C [protoporphyrin IX]
binding to PZ (Human protein Z (PZ)): did not bind
Kd (thrombin [1]; heterogeneous ligand model, read-out: KD1 (porphyrin binding to thrombin)): 150 nM
Kd (thrombin [1]; read-out: KD2 (porphyrin binding to thrombin)): 2200 nM

C=CC1=C(C)c2cc3[n-]c(cc4[n-]c(cc5nc(cc1n2)C(C)=C5C=C)c(C)c4CCC(=O)O)c(CCC(=O)O)c3C.[Zn+2] [zinc protoporphyrin IX]
binding to PZ (Human protein Z (PZ)): did not bind

AKNEC(Me)HPERT [Peptide 2]
K D (heme-binding affinity of peptide) [2, 9]: n.b.
heme binding on peptide level [2]: did not bind heme

C(Me)SLLHRNITVKTYFNRT ({Cys(S-Me)}-SLLHRNITVKTYFNRT) [Peptide 3, PZ-derived peptide around H183/Y191 with methylated cysteine, positions 179 - 195]
Kd [2, 9]: 1130 ± 500 nM
heme binding on peptide level [2]: bound heme

FWRRYKGGS [Peptide 1]
Kd [2, 9]: 1040 ± 360 nM
heme binding on peptide level [2]: bound heme

IKITHVHVHMRYD [Peptide 4, PZ-derived peptide around H206/H208/H210, positions 202 - 214]
Kd [2, 9]: 790 ± 360 nM
heme binding on peptide level [2]: bound heme

PZ: Human protein Z, vitamin-K-dependent glycoprotein, anticoagulant cofactor; obtained from CellSystems GmbH
Kd (thrombin [3]): 110 to 150 nM
relative amidolytic activity toward substrate S-2238 [4]: ~ 0%
Kd [5]: ~48000 nM
impact alone on the procoagulant function of FXa or on clotting of pure plasma (aPTT) (PZ; controls, heme 0.06 – 20 µM, PZ 32 nM, FXa 0.1 nM): not significantly influenced; also recorded: did not exert any significant impact
effect of PZ on the procoagulant effect of FXa (PZ; without heme): block the procoagulant effect of FXa completely
inhibition of the activity of thrombin in the presence of PZ (thrombin [6]): ≈ 20%
amidolytic activity of thrombin at highest PZ concentration (human α-thrombin; PZ 1 µM, ratio ≈30:1 PZ:thrombin): ≈ 140%
inhibitory effect toward the amidolytic activity of thrombin (human α-thrombin; PZ:thrombin ratios of 1:15 to 21:1, without heme): ≈ 20% and 20%
remaining amidolytic activity of thrombin (human α-thrombin; PZ:thrombin ratios of 1:30 to ≈10:1, thrombin 30 nM): ≈ 5080%
Kd [7]: ~1 nM

Protein Z (from UniProt P22891)
Kd (thrombin [8]): 130 nM

Protein Z peptidase-like domain (from UniProt P22891)
Kd (ZPI (Homo sapiens)): 1 nM

VTREHRGSW [Peptide 5, PZ-derived peptide around H321, positions 317 - 325]
heme binding on peptide level [2]: did not bind heme
